The target of data set [1] is T1, Prolidase from porcine kidney (Sus scrofa, UniProt A0A5G2QQV1).
T1 construct: Prolidase from porcine kidney (ICN Biomedicals, Eschwege, Germany); purchased ICN Biomedicals, Eschwege, Germany; host or cells: porcine kidney
T1 sequence (A0A5G2QQV1 1-463): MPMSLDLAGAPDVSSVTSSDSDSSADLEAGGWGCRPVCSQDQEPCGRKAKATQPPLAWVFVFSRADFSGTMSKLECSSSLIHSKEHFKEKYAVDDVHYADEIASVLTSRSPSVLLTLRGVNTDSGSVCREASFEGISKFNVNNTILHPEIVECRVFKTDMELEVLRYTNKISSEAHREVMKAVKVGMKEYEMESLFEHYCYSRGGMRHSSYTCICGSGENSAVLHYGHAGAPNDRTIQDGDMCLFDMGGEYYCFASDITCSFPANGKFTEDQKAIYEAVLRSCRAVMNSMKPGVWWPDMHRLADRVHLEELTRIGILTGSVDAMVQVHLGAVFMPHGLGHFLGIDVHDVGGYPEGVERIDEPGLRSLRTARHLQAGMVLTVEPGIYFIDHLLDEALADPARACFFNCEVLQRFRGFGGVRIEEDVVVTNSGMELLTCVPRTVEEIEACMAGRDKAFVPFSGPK
Description: Cross reacting enzymes - prolidase. The class given is biochemical. To be noted: substrate Ile-Pro-OH, pH 7.6, read-out: IC50 against prolidase. On the procedure: Prolidase (EC 3.4.13.9) was first described by Bergmann & Fruton (Bergmann, M. & Fruton, J S, 1937, J. Biol. Chem. 189-202). Prolidase releases the N-terminal amino acid from Xaa-Pro dipeptides and has a pH optimum between 6 and 9.
Prolidase from porcine kidney (ICN Biomedicals, Eschwege, Germany) was solved (1 mg/ml) in assay buffer (20 mM NH4(CH3COO)2, 3 mM MnCl2, pH 7.6). In order to get a fully active enzyme the solution was incubated for 60 min at room temperature.
450 μl glutaminyl pyrrolidine or glutaminyl thiazolidine in an concentration range of 5*10^−3 M-5*10^−7 M were admixed with 500 μl buffer solution (20 mM NH4(CH3COO)2, pH 7.6) and 250 μl Ile-Pro-OH (0.5 mM in the assay, mixture). The assay mixture was pre-incubated at 30° C. for 5 min. After pre-incubation, 75 μl Prolidase (1:10 diluted in assay buffer) were added and measurement was performed at 30° C. and λ=220 nm for 20 min using a UV/Vis photometer, UV1 (Thermo Spectronic, Cambridge, UK).
The IC 50-values were calculated using Graphit 4.0.15 (Erithacus Software, Ltd., UK).

In a further data set the target is T2, plasma DPIV activity (Rattus norvegicus, UniProt P14740).
T2 construct: from tissue; host or cells: plasma of Wistar rats
T2 sequence (P14740 38-767 limits assumed): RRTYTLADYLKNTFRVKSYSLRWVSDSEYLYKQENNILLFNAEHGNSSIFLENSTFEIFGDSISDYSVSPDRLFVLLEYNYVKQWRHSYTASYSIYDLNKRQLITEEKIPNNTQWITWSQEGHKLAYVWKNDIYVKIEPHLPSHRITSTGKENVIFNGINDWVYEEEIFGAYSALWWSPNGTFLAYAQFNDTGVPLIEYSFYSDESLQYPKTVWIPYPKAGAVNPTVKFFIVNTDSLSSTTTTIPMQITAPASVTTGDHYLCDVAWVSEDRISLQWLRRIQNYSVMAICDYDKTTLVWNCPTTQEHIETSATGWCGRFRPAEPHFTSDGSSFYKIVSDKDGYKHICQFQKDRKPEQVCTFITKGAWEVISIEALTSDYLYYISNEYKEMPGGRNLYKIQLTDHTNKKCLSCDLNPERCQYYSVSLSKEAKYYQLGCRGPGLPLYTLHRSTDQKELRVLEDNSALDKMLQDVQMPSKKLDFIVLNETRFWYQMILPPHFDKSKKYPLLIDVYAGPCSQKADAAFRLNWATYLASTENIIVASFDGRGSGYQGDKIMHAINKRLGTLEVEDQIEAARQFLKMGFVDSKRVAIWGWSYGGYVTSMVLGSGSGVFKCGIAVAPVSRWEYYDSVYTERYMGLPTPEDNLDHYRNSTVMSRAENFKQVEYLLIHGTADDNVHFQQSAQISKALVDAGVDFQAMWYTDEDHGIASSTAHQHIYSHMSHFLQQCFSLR
Put plainly: DPIV inhibiting activity after intravasal and oral administration to Wistar rats. The data set is classed as in vivo. Conditions: rat. The method, then: Male Wistar rats (Shoe: Wist(Sho)) with a body weight ranging between 250 and 350 g were purchased from Tierzucht Schönwalde (Schönwalde, Germany).
Animals were single-caged under conventional conditions with controlled temperature (22±2° C.) on a 12/12 hours light/dark cycle (light on at 06:00 AM). Standard pelleted chow (ssniff® Soest, Germany) and tap water acidified with HCl were allowed ad libitum.
After ≧one week of adaptation at the housing conditions, catheters were implanted into the carotid artery of Wistar rats under general anaesthesia (i.p. injection of 0.25 ml/kg b.w. Rompun® [2%], BayerVital, Germany and 0.5 ml/kg b.w. Ketamin 10, Atarost GmbH & Co., Twistringen, Germany). The animals were allowed to recover for one week. The catheters were flushed with heparin-saline (100 IU/ml) three times per week. In case of catheter dysfunction, a second catheter was inserted into the contra-lateral carotid artery of the respective rat. After one week of recovery from surgery, this animal was reintegrated into the study. In case of dysfunction of the second catheter, the animal was withdrawn from the study. A new animal was recruited and the experiments were continued in the planned sequence, beginning at least 7 days after catheter implantation.
After overnight fasting, 100 μl samples of heparinised arterial blood were collected at −30, −5, and 0 min. […] In the case of oral administration, an additional volume of 1 ml saline was injected into the arterial catheter. In the case of infra-arterial administration, the catheter was immediately flushed with 30 μl saline and an additional 1 ml of saline was given orally via the feeding tube.
All blood samples were collected into ice cooled Eppendorf tubes (Eppendorf-Netheler-Hinz, Hamburg, Germany) filled with 10 μl 1M sodium citrate buffer (pH 3.0) for plasma DPIV activity measurement. Eppendorf tubes were centrifuged immediately (12000 rpm for 2 min, Hettich Zentrifuge EBA 12, Tuttlingen; Germany): The plasma fractions were stored on ice until analysis or were frozen at −20° C. until analysis. All plasma samples were labelled with the following data:
The assay mixture for determination of plasma DPIV activity consisted of 80 μl reagent and 20 μl plasma sample. […] The DPIV activity was expressed in mU/ml.
All parameters were analysed in a descriptive manner including mean and SD.

Data set [2] is described as follows: In vivo inactivation of glutaminyl thiazolidine after oral administration to Wistar rats. Conditions: plasma LC/MS. On the procedure:
Glutaminyl thiazolidine was administered to Wistar rats orally as described in example 9.
After application of placebo or glutaminyl thiazolidine, arterial blood samples were taken at 2.5, 5, 7.5, 10, 15, 20, 40, 60 and 120 min from the carotid catheter of the conscious unrestrained rats to determine the formation of degradation products of glutaminyl thiazolidine.
For analysis, simple solid phase extraction procedure on C18 cartridges was used to isolate the compounds of interest from the plasma. The extracts were analysed using reversed-phase liquid chromatography on Lichrospher 60 RP Select B column hyphenated with tandem mass spectrometry operating in the APCI positive mode. An internal standard method was used for quantification.

The test system of data set [3] is fatty (fa/fa) VDF Zucker rats. Put plainly: Chronic oral treatment of fatty Zucker rats - fasting blood glucose. The data set is classed as in vivo, rat. Conditions: 10 mg/kg oral gavage twice daily, 12 weeks. The method, then:
(§1) Animals were housed singly, on a 12 hour light/dark cycle (lights on at 6 am) and allowed access to standard rat food, and water ad libitum.
Every two days, body weight, morning and evening blood glucose, and food and water intake were assessed. Blood samples for glucose determination were acquired from tail bleeds, and measured using a SureStep glucose analyzer (Lifescan Canada Ltd., Burnaby).
(§2) Every four weeks from the start of the experiment, an oral glucose tolerance test (OGTT) was performed: animals were fasted for 18 hours following the 1700 h dosing and administered 1 g/kg glucose orally.

For data set [4], the system named is fatty (fa/fa) VDF Zucker rats. Description: Chronic oral treatment of fatty Zucker rats - systolic blood pressure (tail-cuff). The class given is in vivo, rat. Conditions: 10 mg/kg oral gavage twice daily. On the procedure:
as §1
Systolic blood pressure was measured weekly using the tail-cuff procedure.

In the next data set the test system is F344 rats. Put plainly: Chronic intragastric infusion via osmotic minipumps over two weeks - blood pressure. The class given is in vivo, rat. On the procedure: Reduced expression of the ectopeptidase DPIV and lack of DPIV-like activity in mutant F344 rats lacking DPIV enzymic activity and expression results in a lowered blood pressure. Mutant F344 substrains lacking DPIV enzymic activity and wild-type-like F344 were tested.

A further data set is described as follows: Circulating half-life. The data set is classed as in vivo. Conditions: 18 hours following dosing. The method, then:
as §2

Data set [5] concerns the target T3, PepT1 (Oryctolagus cuniculus, UniProt P36836).
T3 sequence (P36836 1-707): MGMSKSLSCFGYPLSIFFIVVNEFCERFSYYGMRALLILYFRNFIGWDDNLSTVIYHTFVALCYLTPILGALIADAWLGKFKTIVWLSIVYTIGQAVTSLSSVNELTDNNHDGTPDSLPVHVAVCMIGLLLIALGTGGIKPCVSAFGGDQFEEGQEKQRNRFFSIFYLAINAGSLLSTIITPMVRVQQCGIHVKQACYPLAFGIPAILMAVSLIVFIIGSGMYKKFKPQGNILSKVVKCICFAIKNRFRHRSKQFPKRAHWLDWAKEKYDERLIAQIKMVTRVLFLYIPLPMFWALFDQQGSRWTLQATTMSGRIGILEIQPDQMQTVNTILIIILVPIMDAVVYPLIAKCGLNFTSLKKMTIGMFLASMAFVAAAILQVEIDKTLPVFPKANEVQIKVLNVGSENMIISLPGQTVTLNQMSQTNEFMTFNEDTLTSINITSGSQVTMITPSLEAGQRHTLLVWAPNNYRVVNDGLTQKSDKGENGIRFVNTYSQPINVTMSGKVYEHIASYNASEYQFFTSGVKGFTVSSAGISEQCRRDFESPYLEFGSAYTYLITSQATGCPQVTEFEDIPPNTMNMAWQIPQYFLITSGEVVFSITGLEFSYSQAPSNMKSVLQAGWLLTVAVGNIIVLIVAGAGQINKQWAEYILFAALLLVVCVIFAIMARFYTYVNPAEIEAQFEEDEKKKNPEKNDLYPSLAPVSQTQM
Description: Inhibition of binding of 3H-D-Phe-Ala to PepT1-expressing P. pastoris cells. Conditions: read-out: EC50: concentration inhibiting the binding of 3H-D-Phe-Ala to PepT1-expressing P. pastoris cells by 50%. An excerpt: (§3) Side chain-modified glutamyl thiazolidines having a structure H-Glu(X)-Thia were synthesised, with polyethylene glycol or glycine oligomers of various chain lengths being used as X (see Method A of example for description of synthesis). The binding characteristics of those derivatives and their transportability by the peptide transporter PepT1 were investigated.

For data set [6], the target named is T3, PepT1. Description: Transport characteristics at PepT1-expressing oocytes of X. leavis, two-electrode voltage clamp. The class given is cell-based.
Source text: as §3
A general note: Two-electrode voltage clamp holds a large cell at a set potential and records current.

For data set [7], the system named is DPIV and DPIV-like enzymatic activity. Description: Inhibition of the DPIV-catalyzed hydrolysis of the incretins GIP1-42 and GLP-17-36 in vitro (pooled human serum, MALDI-TOF). The class given is biochemical. Conditions: 20 mM inhibitor; 30 mM peptide; 20% pooled serum; pH 7.6; 30° C.; 24 hours. An excerpt: It is possible to suppress the in vitro hydrolysis of incretins caused by DPIV and DPIV-like enzymatic activity using purified enzyme or pooled human serum (FIG. 1).
Samples were cocrystallized using 2′,6′-dihydroxy-acetophenon as matrix and analyzed by MALDI-TOF-mass spectrometry. Spectra (FIG. 1) display accumulations of 250 single laser shots per sample.
In the control assays containing no inhibitor the incretins were almost completely degraded (FIGS. 1b and 1c, both bottom spectra).

The test system of a further data set is Wistar-rats. Put plainly: Insulin and blood glucose responses to glucose after i.v. administration of inhibitor. The class given is in vivo, rat.

Structures can show the parent of a compound that is named as a salt. Where two headings read alike, the source gives them in different places. Some results are limits rather than exact numbers.

Description for Wistar-rats: The test group additionally obtained an infusion of the inhibitor of 0.75 M/min over 30 min experimental time (*). The control group received during the same time interval an infusion of inhibitor-free 0.9% saline solution. At starting time t=0 all animals were administered an i.d. glucose dose of 1 g/kg 40% dextrose solution (w/v). Blood samples were collected of all test animals in 10 min time intervals. Glucose was analyzed using whole blood (Lifescan One Touch II analyzer) while DPIV-activity and insulin concentration were analyzed in plasma. […] All data are presented as mean+/−s.e.m.

Consider `NC(=O)CCC(N)C(=O)N1CCSC1` (centres unmarked) [Gln-Thia, glutaminyl thiazolidine], for which the half-maximal inhibitory concentration (IC50) (as a rule, the concentration needed to halve the response being measured) in data set [1] is over 3 mM. Further, the inhibition (commonly how much of the control response was suppressed) at 100 mg/kg on plasma DPIV activity (iv, intra-vasal (intra-arterial) route, read-out: in vivo DPIV-inhibition at tmax, i.v.) came out at 88%. In addition, the inhibition at 100 mg/kg at plasma DPIV activity (oral, read-out: in vivo DPIV-inhibition at tmax, p.o.) amounted to 71%. Besides, in data set [2], the “degradation of the compound in vivo” value is “degradation of the compound was found” and the degradation product entry is listed as “pyroglutaminyl thiazolidine”.
Turning to `CC[C@H](C)[C@H](N)C(=O)N1CCSC1` [Isoleucyl thiazolidine fumarate], the fasting blood glucose result in data set [3] is “dramatic reduction and almost normalization”. Further, in data set [4], the systolic blood pressure entry is “stabilization”. In the data set with F344 rats, the blood pressure result is “dose-dependently reduced”. Further, the “number of circulating half-lives equivalent to the 18 hours fasting period” value in the data set “Circulating half-life” is given as about 12 circulating half-lives.
For `CCC(C)C(N)C(=O)N1CCSC1` (centres unmarked) [isoleucyl thiazolidine], the EC50 on PepT1 [5] is 980 µM. For the same molecule, the “Imax, inward currents generated by the transport” value at PepT1 [6] was 25 ± 8 nA. For the same molecule, in data set [7], the “suppression of the enzyme-catalyzed hydrolysis of GIP1-42 and GLP-17-36” value is “complete suppression”. Further, the “circulating glucose concentration after intraduodenal (i.d.) glucose” value with Wistar-rats (0.1 mg per kg, versus untreated controls) is “more rapid reduction”. For the same molecule, the “effect on circulating glucose after i.v. administration of the same amount of glucose” value in the data set with Wistar-rats (inhibitor-treated) is listed as “no comparable effect”.
